Measured values from US20040072902A1, “Methods for inducing apoptosis and inhibiting proliferation in cancer cells” (priority 2003, published 2004).

How the values were obtained:
[1] = system: AsPC-1 human pancreatic cancer cells; experiment: Thymidine incorporation proliferation assay in AsPC-1 cells; type: cell-based
Source text: This can be seen in FIG. 1A (results using myristoleic acid obtained from Sigma Chemicals (St. Louis, Mo.)) and FIG. 1B (results using myristoleic acid obtained from Matreya, Inc. (State College, Pa.)).
(§1) The results are presented in FIG. 2A (cetyl myristoleic acid) and FIG. 2B (palmitoleic acid).
(§2) The thymidine incorporation experiments described in Example 1 were repeated in triplicate on each of two malignant human pancreatic cancer cell lines, AsPC-1 and PANC-1. The results are set forth in FIG. 3A (AsPC-1) and FIG. 3B (PANC-1).

[2] = system: AsPC-1 human pancreatic cancer cells; experiment: Cell morphology during inhibition of proliferation; type: cell-based; details: membrane blebbing, cellular rounding, detachment, data not shown
Source text: as §1

AsPC-1 xenografts [3] = experiment: Growth of AsPC-1 xenografts in athymic mice; type: in vivo; details: 250 mg/kg/day intraperitoneal
Procedure: (§3) The effects of daily intraperitoneal injection of myristoleic acid (250 mg/kg/day) on the growth of AsPC-1 and HPAC xenografts in athymic mice were investigated. Animals were injected daily with myristoleic acid (250 mg/kg/day) (labeled “myristoleic acid” in FIG. 6) or with a control solution (labeled “control” in FIG. 6) once visible tumors were established (about five days after implantation). […] The experiment was repeated twice with AsPC-1 cells and also with HPAC cells. The results set forth in FIG. 6 are representative of these experiments.
(§4) Tumor volumes of the above-described athymic mice were measured as a function of time, and the results are presented in FIG. 7A (AsPC-1 cancer cells) and FIG. 7B (HPAC cancer cells).
(§5) At the end of the experiment, the AsPC-1 and HPAC xenografts were harvested from the athymic mice and the weights of the tumors were measured.

AsPC-1 xenografts [4] = experiment: In situ TUNEL assay of harvested xenografts; type: in vivo, athymic mice; details: AsPC-1 xenografts harvested at end of experiment; versus vehicle (minimal staining)
Procedure: To determine whether the effects observed in the athymic mouse experiments described in Example 7 might be due to apoptosis, in situ TUNEL assays were carried out on the AsPC-1 xenografts that were harvested from the athymic mice at the end of the experiment. Images of xenograft sections from mice treated with the control solution (vehicle only) (FIGS. 9A and 9B) show minimal staining.

AsPC-1 cells [5] = experiment: Annexin V binding (early apoptosis); type: cell-based, human; details: 10 μg/ml; 3 or 5 hours after beginning treatment
Procedure: The effect of myristoleic acid (10 μg/ml) (“MA”) on annexin V binding in AsPC-1 cells at 3 or 5 hours after beginning treatment is shown in FIG. 4. […] This specific test utilizes the translocation of phophatidyl serine from the inner to outer plasma membrane, which is a feature of early apoptosis. The results set forth in FIG. 4 are representative of three separate experiments.

AsPC-1 cells [6] = experiment: TUNEL assay (DNA fragmentation); type: cell-based, human; details: 10 μg/ml; 24 hours; versus control
Procedure: The effect of myristoleic acid (10 μg/ml) (“MA”) on terminal deoxynucleotidyl transferase-mediated dUTP nick end labeling (“TUNEL”) assay at 24 hours in AsPC-1 cells was investigated. The results are presented in FIGS. 5A (control) and 5B (10 μg/ml myristoleic acid). […] The results set forth in FIGS. 5A and 5B are representative of three separate experiments.

[7] = system: PANC-1 human pancreatic cancer cells; experiment: Thymidine incorporation proliferation assay in PANC-1 cells; type: cell-based
Source text: as §2

HPAC xenografts = experiment: Growth of HPAC xenografts in athymic mice; type: in vivo; details: 250 mg/kg/day intraperitoneal
Procedure: as §3, §4, §5

Row | SMILES | inhibition of proliferation as measured by thymidine incorporation ([1]; Example 2) | morphological changes accompanying inhibition of proliferation [2] | anti-proliferative activity, concentration range of effects [1] | inhibition of proliferation as measured by thymidine incorporation ([1]; 24 hours, myristoleic acid from two commercial sources (Sigma, Matreya)) | effects on pancreatic cancer cell proliferation (thymidine incorporation) ([1]; repeated in triplicate) | tumor size (AsPC-1 xenografts [3]; daily, AsPC-1 xenografts, throughout the experimental period) | tumor weight (AsPC-1 xenografts [3]; AsPC-1, at the end of the experiment) | tumor volume (AsPC-1 xenografts [3]; AsPC-1, throughout the experimental period) | apoptotic cells in xenograft sections (in situ TUNEL) (AsPC-1 xenografts [4]) | annexin V binding (AsPC-1 cells [5]) | number of apoptotic cells by TUNEL assay (AsPC-1 cells [6]) | anti-proliferative activity, concentration range of effects [7] | effects on pancreatic cancer cell proliferation (thymidine incorporation) ([7]; repeated in triplicate) | tumor size (HPAC xenografts; daily, HPAC xenografts, throughout the experimental period) | tumor weight (HPAC xenografts; HPAC, at the end of the experiment) | tumor volume (HPAC xenografts; HPAC, throughout the experimental period)
1 | CCCC/C=C\CCCCCCCC(=O)OCCCCCCCCCCCCCCCC [cetyl myristoleic acid] | concentration-dependent inhibition of proliferation | morphological changes associated with apoptosis |  |  |  |  |  |  |  |  |  |  |  |  |  | 
2 | CCCC/C=C\CCCCCCCC(=O)O [myristoleic acid] |  | morphological changes associated with apoptosis | low micromolar range | concentration-dependent inhibition of proliferation | concentration-dependent effects | marked reduction in tumor size | marked reduction | marked reduction | many apoptotic cells | Marked membrane fluorescence | marked increase in the number of apoptotic cells | low micromolar range | concentration-dependent effects | marked reduction in tumor size | marked reduction | marked reduction
3 | CCCCCC/C=C\CCCCCCCC(=O)O [palmitoleic acid] | concentration-dependent inhibition of proliferation | morphological changes associated with apoptosis |  |  |  |  |  |  |  |  |  |  |  |  |  | 
